Test results as given in patent US20230149418A1, “METHODS AND SYNERGIC COMPOSITIONS FOR TREATING VIRAL INFECTIONS” (HADASIT MEDICAL RESEARCH SERVICES AND DEVELOPMENT LTD., priority 2018, published 2023).
Like-named read-outs stand apart in the source and are kept apart here.

Tested on: HCMV TB40/E strain
Assay: Plaque reduction assay, HCMV TB40/E strain in human foreskin fibroblasts, single drugs and 2-drug combinations (Chou-Talalay)
Format: cell-based, human cytomegalovirus
Conditions: for EC50: Human betaherpesvirus 5, Fibroblast; for Dose of drug alone at Fa 0.75: Fa 0.75, drug alone; for Dose of drug alone at Fa 0.9: Fa 0.9, drug alone; for Dose of drug alone at Fa 0.95: Fa 0.95, drug alone; for Dose of drug alone at Fa 0.97: Fa 0.97, drug alone; for Dose of drug alone at Fa 0.05: Fa (fraction of virus affected) 0.05, drug alone
Experimental: The CMV strain used was TB40/E. The CMV strain was propagated and tittered in human foreskin fibroblasts (HFF) cells. Cell-free virus stocks and cell-associated clinical isolates were maintained at -70° C. Viral stocks were tittered by serial 10-fold dilution in 24-well tissue culture plates containing HFF monolayers overlaid with agarose-medium. After incubation for 7 to 14 days, plaques were enumerated, and virus titer was determined as plaque forming units (PFU) per milliliter (ml). Stocks of artemisone (10 mM), ganciclovir (10 mM), BDCRB (120 mM), brincidofovir (1 mM), maribavir (10 mM) and letermovir (10 mM) were prepared in DMSO or H2O.
Cell monolayers were inoculated in 24-well culture plates with 0.2 ml of virus suspension containing 60 to 100 PFU per well. After adsorption for 60 -120 min at 37° C., the inoculum was removed, and culture medium was replaced with agarose-medium overlay containing serial concentrations of the tested drug(s). Plates were incubated for 7-14 days at 37° C. in a 5% CO2 incubator. Plaques were then counted microscopically.
The effect of a combination of artemisone with each one of ganciclovir (HCMV DNA polymerase), BDCRB (HCMV terminase inhibitor), brincidofovir (HCMV DNA polymerase inhibitor), maribavir (HCMV UL97 kinase inhibitor) and letermovir (HCMV terminase inhibitor) was evaluated by the classical plaque reduction assay. The in vitro activity of each of the above mentioned antiviral compounds alone or in combination with artemisone was evaluated by the classical plaque reduction assay, using HCMV TB40/E strain in human foreskin fibroblasts cells. The concentration of each antiviral compound that reduced the plaque formation by 50% (EC50) was determined as previously described in Wolf DG et al., J Clin Invest. 1995;95:257-63. The individual EC50 values in human foreskin fibroblasts were as follows: artemisone EC50 - 1 µM; ganciclovir EC50 - 1 µM; maribavir EC50 - 1 µM; BDCRB EC50 - 0.5 µM; letermovir EC50 - 5 nM; brincidofovir EC50 -1 nM.
For the 2-drug combination studies, the EC50 value of each drug was used to determine an equipotent ratio between the two compounds (EC50 of drug 1 / EC50 of drug 2). Serial 2-fold dilutions of a mixture comprising artemisone and another antiviral compound at initial concentrations equivalent to 4-fold the equipotent ratio were added to duplicate wells of cells infected with HCMV. Overall, 5 different concentrations of the drug combinations were used: 4xEC50, 2xEC50, 1xEC50,0.5xEC50,0.25xEC50. The cell monolayers were inoculated in 24-well culture plates with 0.2 ml of virus suspension containing 60 to 100 plaque-forming unit (PFU) per well; the Multiplicity of infection (MOI) was 0.001-0.002 PFU/cell).
D1 and D2 are the doses of the two drugs, and Dx is a dose causing to x% effect (LD0.5 is EC50). Briefly, the software extrapolated a combination index (CI) representing the interaction between the two drugs at specified levels of virus inhibition (that is 50%, 75%, 90%, 95%) versus the percentages of the inhibition induced by each drug alone and in combination (equation 16 in Chou).
A weighted average CI (CIwt) was then calculated for each combination as (CI50+ 2×CI75+3×CI90+4×CI95)/10, to access the drug combinatory effects.
The dose reduction index (DRI) was then calculated as described in Chou. In general, the DRI measures the fold of dose reduction of each drug in the combination at a given effect level compared with the doses of each drug alone. For each one of the below tables: Fa - fraction of virus affected; doses are provided in µm.

[1] = drug alone, human foreskin fibroblasts, read-out: EC50 (concentration that reduced the plaque formation by 50%)
[2] = Fa 0.5, drug alone, read-out: Dose of drug alone at Fa 0.5

OC[C@H]1O[C@@H](n2c(Br)nc3cc(Cl)c(Cl)cc32)[C@H](O)[C@@H]1O [BDCRB, 2-bromo-5,6-dichloro-1-beta-D-ribofuranosyl benzimidazole]
EC50 [1]: 500 nM

Nc1ccn(C[C@@H](CO)OCP(=O)(O)O)c(=O)n1 [cidofovir]
Dose of drug alone at Fa 0.75: 0.646 µm
Dose of drug alone at Fa 0.9: 1.148 µm
Dose of drug alone at Fa 0.95: 1.698 µm
Dose of drug alone at Fa 0.97: 2.242 µm
Dose of drug alone at Fa 0.05: 0.07783 µm
EC50 [2]: 364 nM
DRI (dose reduction index) (combination artemisone + cidofovir, Fa 0.05): 1.038
DRI (dose reduction index) (combination artemisone + cidofovir, Fa 0.5): 1.757
DRI (dose reduction index) (combination artemisone + cidofovir, Fa 0.75): 2.139
DRI (dose reduction index) (combination artemisone + cidofovir, Fa 0.9): 2.6
DRI (dose reduction index) (combination artemisone + cidofovir, Fa 0.9, listed as CDV): 2.603
DRI (dose reduction index) (combination artemisone + cidofovir, Fa 0.95): 2.975
DRI (dose reduction index) (combination artemisone + cidofovir, Fa 0.97): up to 3.27
DRI (dose reduction index) (combination artemisone + cidofovir, Fa 0.97, listed as CDV): 3.271

Nc1nc2c(ncn2COC(CO)CO)c(=O)[nH]1 [ganciclovir]
Dose of drug alone at Fa 0.75: 1.113 µm
Dose of drug alone at Fa 0.9: 2.12 µm
Dose of drug alone at Fa 0.9 (listed as GCV): 2.121 µm
Dose of drug alone at Fa 0.95: 3.287 µm
Dose of drug alone at Fa 0.97: 4.491 µm
Dose of drug alone at Fa 0.05: 0.1039 µm
EC50 [2]: 584 nM
EC50 [1]: 1000 nM
DRI (dose reduction index) (combination artemisone + ganciclovir, Fa 0.05): 1.342
DRI (dose reduction index) (combination artemisone + ganciclovir, Fa 0.5): 1.673
DRI (dose reduction index) (combination artemisone + ganciclovir, Fa 0.75): 1.817
DRI (dose reduction index) (combination artemisone + ganciclovir, Fa 0.9, listed as GCV): 1.973
DRI (dose reduction index) (combination artemisone + ganciclovir, Fa 0.95): 2.09
DRI (dose reduction index) (combination artemisone + ganciclovir, Fa 0.95, listed as GCV): 2.086
DRI (dose reduction index) (combination artemisone + ganciclovir, Fa 0.97): 2.171
